Results reported in patent US20090170812A1, “Transcription factor modulating compounds and methods of use thereof” (priority 2006, published 2009).

Tests used:
[1] = biological target: T1, ExsA (Pseudomonas aeruginosa, UniProt P26993); assay: In vitro activity of Mar inhibitors against ExsA: cell-free DNA binding assay; conditions: purified ExsA from P. aeruginosa, inhibition of DNA binding in vitro
T1 construct: made in house
T1 sequence (P26993 1-278): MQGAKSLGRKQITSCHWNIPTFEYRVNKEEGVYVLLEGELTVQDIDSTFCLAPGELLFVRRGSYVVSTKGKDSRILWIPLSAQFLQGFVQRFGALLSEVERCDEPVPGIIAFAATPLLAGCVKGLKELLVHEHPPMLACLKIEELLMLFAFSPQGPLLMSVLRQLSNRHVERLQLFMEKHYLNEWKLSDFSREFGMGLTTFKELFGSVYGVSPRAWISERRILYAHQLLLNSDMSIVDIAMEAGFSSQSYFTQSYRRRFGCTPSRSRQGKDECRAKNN

[2] = biological target: LcrF (VirF) (Yersinia pestis, UniProt P28808); assay: biochemical; type: binding, Y. pseudotuberculosis
[3] = test system: P. aeruginosa; assay: Whole cell assay: cytotoxicity of P. aeruginosa toward J774 cells (CytoTox 96, LDH release); conditions: percent cytotoxicity of treated P. aeruginosa toward J774 cells
[4] = test system: Yersinia pseudotuberculosis

Sequence of LcrF (VirF) (P28808 whole entry, looked up): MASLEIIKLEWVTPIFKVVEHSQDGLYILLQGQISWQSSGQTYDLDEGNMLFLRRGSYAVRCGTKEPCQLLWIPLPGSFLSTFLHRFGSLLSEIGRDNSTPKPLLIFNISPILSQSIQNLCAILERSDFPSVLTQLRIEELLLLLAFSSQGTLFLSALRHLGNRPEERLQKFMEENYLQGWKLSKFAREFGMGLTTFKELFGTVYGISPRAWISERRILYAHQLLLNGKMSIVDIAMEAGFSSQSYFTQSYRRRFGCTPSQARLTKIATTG

Row | SMILES | EC50 [1] | EC50 [2] | Cytotoxicity at 50 μg/mL Pseudomonas [3] | Cytotoxicity at 50 μg/mL Yersinia [4]
1 | COc1cc(NC(=O)/C=C/c2ccc(F)cc2)ccc1-c1nc2ccc([N+](=O)[O-])cc2n1O [BH] | 10.1 to 25 µM | 10.1 to 25 µM | * (percent cytotoxicities above 75% at 50 mg/mL) | * (key: *: percent cytotoxicity above 75% at 50 μg/mL; **: cytotoxicities below 75% at 50 μg/mL)
2 | O=C(Nc1ccc(-c2nc3ccc([N+](=O)[O-])cc3n2O)cc1)c1ccccc1O [AC] | 10.1 to 25 µM | 10.1 to 25 µM | * (percent cytotoxicities above 75% at 50 mg/mL) | * (key: *: percent cytotoxicity above 75% at 50 μg/mL; **: cytotoxicities below 75% at 50 μg/mL)
3 | N#Cc1ccc(C(=O)Nc2ccc(-c3nc4ccc(C#N)cc4n3O)cc2)cc1 [D] | < 10 µM | < 10 µM | * (percent cytotoxicities above 75% at 50 mg/mL) | ** (key: *: percent cytotoxicity above 75% at 50 μg/mL; **: cytotoxicities below 75% at 50 μg/mL)
4 | Cc1cc2nc(-c3ccc(NC(=O)/C=C/c4ccc(F)cc4)cc3)n(O)c2cc1[N+](=O)[O-] [Compound BC, (E)-3-(4-Fluoro-phenyl)-N-[4-(1-hydroxy-5-methyl-6-nitro-1H-benzoimidazol-2-yl)-phenyl]-acrylamide] | < 10 µM | < 10 µM | ** (cytotoxicities below 75% at 50 mg/mL) | ** (key: *: percent cytotoxicity above 75% at 50 μg/mL; **: cytotoxicities below 75% at 50 μg/mL)
5 | O=C(Nc1ccc(-c2nc3ccc([N+](=O)[O-])cc3n2O)cc1)c1ccc(F)c(F)c1 [P] | 10.1 to 25 µM | 10.1 to 25 µM | * (percent cytotoxicities above 75% at 50 mg/mL) | * (key: *: percent cytotoxicity above 75% at 50 μg/mL; **: cytotoxicities below 75% at 50 μg/mL)
6 | COc1cc(C(=O)Nc2ccc(-c3nc4ccc([N+](=O)[O-])cc4n3O)cc2)ccc1F [AB] | 10.1 to 25 µM | 10.1 to 25 µM | * (percent cytotoxicities above 75% at 50 mg/mL) | * (key: *: percent cytotoxicity above 75% at 50 μg/mL; **: cytotoxicities below 75% at 50 μg/mL)
7 | COc1cc(NC(=O)c2ccc(F)cc2)ccc1-c1nc2ccc([N+](=O)[O-])cc2n1O [AI] | 10.1 to 25 µM | > 25.1 µM | * (percent cytotoxicities above 75% at 50 mg/mL) | * (key: *: percent cytotoxicity above 75% at 50 μg/mL; **: cytotoxicities below 75% at 50 μg/mL)
8 | CCOP(=O)(COn1c(-c2ccc(NC(=O)/C=C/c3ccc(F)cc3)cc2)nc2ccc([N+](=O)[O-])cc21)OCC [Compound AS, (2-{4-[(E)-3-(4-Fluoro-phenyl)-acryloylamino]-phenyl}-6-nitro-benzoimidazol-1-yloxymethyl)-phosphonic Acid Diethyl Ester] | 10.1 to 25 µM | > 25.1 µM | * (percent cytotoxicities above 75% at 50 mg/mL) | * (key: *: percent cytotoxicity above 75% at 50 μg/mL; **: cytotoxicities below 75% at 50 μg/mL)
9 | O=C(/C=C/c1ccc(F)cc1)Nc1ccc(-c2nc3ccc([N+](=O)[O-])cc3n2O)cc1F [Compound AZ, (E)-N-[2-Fluoro-4-(1-hydroxy-6-nitro-1H-benzoimidazol-2-yl)-phenyl]-3-(4-fluoro-phenyl)-acrylamide] | 10.1 to 25 µM | 10.1 to 25 µM | * (percent cytotoxicities above 75% at 50 mg/mL) | * (key: *: percent cytotoxicity above 75% at 50 μg/mL; **: cytotoxicities below 75% at 50 μg/mL)
10 | O=C(/C=C/c1ccc(F)c(CP(=O)(O)O)c1)Nc1ccc(-c2nc3ccc([N+](=O)[O-])cc3n2O)cc1 [AM] | 10.1 to 25 µM | 10.1 to 25 µM | * (percent cytotoxicities above 75% at 50 mg/mL) | * (key: *: percent cytotoxicity above 75% at 50 μg/mL; **: cytotoxicities below 75% at 50 μg/mL)
11 | COc1cc(NC(=O)c2ccc(C(C)=O)cc2)ccc1-c1nc2ccc([N+](=O)[O-])cc2n1O [BG] | 10.1 to 25 µM | > 25.1 µM | ** (cytotoxicities below 75% at 50 mg/mL) | * (key: *: percent cytotoxicity above 75% at 50 μg/mL; **: cytotoxicities below 75% at 50 μg/mL)
12 | CCc1cc(-c2nc3ccc([N+](=O)[O-])cc3n2O)ccc1NC(=O)c1ccc(C(C)=O)cc1 [AA] | 10.1 to 25 µM | 10.1 to 25 µM | * (percent cytotoxicities above 75% at 50 mg/mL) | * (key: *: percent cytotoxicity above 75% at 50 μg/mL; **: cytotoxicities below 75% at 50 μg/mL)
13 | O=C(Nc1ccc(-c2nc3ccc([N+](=O)[O-])cc3n2O)cc1)/C(F)=C/c1ccccc1 [G] | < 10 µM | 10.1 to 25 µM | ** (cytotoxicities below 75% at 50 mg/mL) | * (key: *: percent cytotoxicity above 75% at 50 μg/mL; **: cytotoxicities below 75% at 50 μg/mL)
14 | O=C(/C=C/c1ccc(-n2cncn2)cc1)Nc1ccc(-c2nc3ccc([N+](=O)[O-])cc3n2O)cc1 [Compound BI, (E)-N-[4-(1-Hydroxy-6-nitro-1H-benzoimidazol-2-yl)-phenyl]-3-(4-[1,2,4]triazol-1-yl-phenyl)-acrylamide] | < 10 µM | > 25.1 µM | ** (cytotoxicities below 75% at 50 mg/mL) | ** (key: *: percent cytotoxicity above 75% at 50 μg/mL; **: cytotoxicities below 75% at 50 μg/mL)
15 | O=C(/C=C/c1ccc(F)cc1)Nc1ccc(-c2nc3ncc([N+](=O)[O-])cc3n2O)c(F)c1 [AV] | < 10 µM | < 10 µM | * (percent cytotoxicities above 75% at 50 mg/mL) | * (key: *: percent cytotoxicity above 75% at 50 μg/mL; **: cytotoxicities below 75% at 50 μg/mL)
16 | COc1ccc(/C=C/C(=O)Nc2ccc(-c3nc4ccc([N+](=O)[O-])cc4n3O)cc2)c(OC)c1 [J] | < 10 µM | > 25.1 µM | * (percent cytotoxicities above 75% at 50 mg/mL) | ** (key: *: percent cytotoxicity above 75% at 50 μg/mL; **: cytotoxicities below 75% at 50 μg/mL)
17 | Cc1cc(C(=O)Nc2ccc(-c3nc4ccc([N+](=O)[O-])cc4n3O)cc2)ccc1F [S] | 10.1 to 25 µM | 10.1 to 25 µM | * (percent cytotoxicities above 75% at 50 mg/mL) | * (key: *: percent cytotoxicity above 75% at 50 μg/mL; **: cytotoxicities below 75% at 50 μg/mL)
18 | O=C(/C=C/c1ccc(F)cc1)Nc1ccc(-c2nc3ccc([N+](=O)[O-])cc3n2O)cn1 [AN] | < 10 µM | < 10 µM | * (percent cytotoxicities above 75% at 50 mg/mL) | * (key: *: percent cytotoxicity above 75% at 50 μg/mL; **: cytotoxicities below 75% at 50 μg/mL)
19 | O=C(/C=C/c1ccc(F)cc1)Nc1ccc(-c2nc3ccc([N+](=O)[O-])cc3n2O)c(F)c1 [AW] | 10.1 to 25 µM | < 10 µM | * (percent cytotoxicities above 75% at 50 mg/mL) | ** (key: *: percent cytotoxicity above 75% at 50 μg/mL; **: cytotoxicities below 75% at 50 μg/mL)
